Measurements as given in patent publication US9359378B2, “Substituted oxazolo[3,4-a]pyrazines as pharmaceutcals” (BIOLAB SANUS FARMACÊUTICA LTDA., priority 2014, dated 2016).

Tests used:
PDE3B = target: T1, PDE3B (Homo sapiens, UniProt Q13370); assay: PDE3B enzyme inhibition (HTRF, cAMP substrate); format: biochemical; details: human recombinant enzyme (Sf9); FIGS. 14 and 15; test concentration not given
T1 construct: host or cells: Sf9
Procedure: The effects of compounds BL-230 and BL-236 on human PDE3B enzyme activity was quantified by measuring the production of 5′AMP from CAMP using human recombinant enzyme expressed in Sf9 cells and the detection method was by using HTRF®.
The test compound, the reference compound or water (control) were mixed with 0.7 U of the enzyme PDE3B in a buffer containing 50 mM Tris-HCl, 6 mM MgCl2, 3 mM DTT and 0.05% Tween® 20 (pH 7.8). Then, the reaction was initiated by addition of 40 nM of cAMP substrate and the mixture was incubated for 30 minutes at 22° C. For basal control measurements, the enzyme was omitted from the reaction mixture. The fluorescence acceptor (Dye2 labeled cAMP) and fluorescence donor (anti-cAMP antibody labeled with europium cryptate) were added in the presence of 1 mM IBMX. After 60 minutes, the transfer of fluorescence corresponding to the amount of residual cAMP was measured at λex=337 nm, λem=620 nm and λem=665 nm using a microplate reader (RubyStar, BMG). The enzyme activity was determined by the signal division measured at 665 nm, by the signal measured at 620 nm (right). The results were expressed as an inhibition percentage of the control enzyme activity. The standard inhibitory reference compound milrinone was used, which was tested in each experiment at several concentrations to obtain an inhibition curve from which its IC50 value was calculated. […]

PDE6 = target: T2, PDE6 (Bos taurus, UniProt P11541+P23439); assay: PDE6 enzyme inhibition (SPA, enzyme isolated from bovine retina); format: biochemical; details: FIGS. 14 and 15, test concentration not given
T2 construct: using an enzyme isolated from Cerep bovine retina; tissue Cerep; host or cells: bovine retina
T2 sequence (P11541 2-856 limits assumed): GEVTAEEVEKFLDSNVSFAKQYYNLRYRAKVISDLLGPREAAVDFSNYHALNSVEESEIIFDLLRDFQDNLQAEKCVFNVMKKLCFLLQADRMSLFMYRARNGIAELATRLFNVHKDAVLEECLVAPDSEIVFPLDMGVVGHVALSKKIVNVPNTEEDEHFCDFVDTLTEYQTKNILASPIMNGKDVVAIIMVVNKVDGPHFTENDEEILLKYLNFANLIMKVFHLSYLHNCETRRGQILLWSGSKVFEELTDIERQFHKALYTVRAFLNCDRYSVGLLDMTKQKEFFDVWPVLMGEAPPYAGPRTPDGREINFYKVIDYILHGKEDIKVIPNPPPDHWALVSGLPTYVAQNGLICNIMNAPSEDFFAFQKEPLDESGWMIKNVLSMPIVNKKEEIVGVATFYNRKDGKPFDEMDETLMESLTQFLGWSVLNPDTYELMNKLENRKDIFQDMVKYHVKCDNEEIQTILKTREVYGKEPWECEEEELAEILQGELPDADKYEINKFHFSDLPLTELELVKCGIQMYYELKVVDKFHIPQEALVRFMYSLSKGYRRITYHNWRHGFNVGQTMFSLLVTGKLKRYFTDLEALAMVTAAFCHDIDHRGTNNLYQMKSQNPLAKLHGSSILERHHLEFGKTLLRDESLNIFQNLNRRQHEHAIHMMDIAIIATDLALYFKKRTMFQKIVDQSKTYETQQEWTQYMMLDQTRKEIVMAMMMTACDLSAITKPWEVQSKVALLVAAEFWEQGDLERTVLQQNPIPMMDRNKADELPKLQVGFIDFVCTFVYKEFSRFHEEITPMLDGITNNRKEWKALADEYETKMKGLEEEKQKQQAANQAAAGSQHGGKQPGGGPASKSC
T2 sequence (P23439 2-850 limits assumed): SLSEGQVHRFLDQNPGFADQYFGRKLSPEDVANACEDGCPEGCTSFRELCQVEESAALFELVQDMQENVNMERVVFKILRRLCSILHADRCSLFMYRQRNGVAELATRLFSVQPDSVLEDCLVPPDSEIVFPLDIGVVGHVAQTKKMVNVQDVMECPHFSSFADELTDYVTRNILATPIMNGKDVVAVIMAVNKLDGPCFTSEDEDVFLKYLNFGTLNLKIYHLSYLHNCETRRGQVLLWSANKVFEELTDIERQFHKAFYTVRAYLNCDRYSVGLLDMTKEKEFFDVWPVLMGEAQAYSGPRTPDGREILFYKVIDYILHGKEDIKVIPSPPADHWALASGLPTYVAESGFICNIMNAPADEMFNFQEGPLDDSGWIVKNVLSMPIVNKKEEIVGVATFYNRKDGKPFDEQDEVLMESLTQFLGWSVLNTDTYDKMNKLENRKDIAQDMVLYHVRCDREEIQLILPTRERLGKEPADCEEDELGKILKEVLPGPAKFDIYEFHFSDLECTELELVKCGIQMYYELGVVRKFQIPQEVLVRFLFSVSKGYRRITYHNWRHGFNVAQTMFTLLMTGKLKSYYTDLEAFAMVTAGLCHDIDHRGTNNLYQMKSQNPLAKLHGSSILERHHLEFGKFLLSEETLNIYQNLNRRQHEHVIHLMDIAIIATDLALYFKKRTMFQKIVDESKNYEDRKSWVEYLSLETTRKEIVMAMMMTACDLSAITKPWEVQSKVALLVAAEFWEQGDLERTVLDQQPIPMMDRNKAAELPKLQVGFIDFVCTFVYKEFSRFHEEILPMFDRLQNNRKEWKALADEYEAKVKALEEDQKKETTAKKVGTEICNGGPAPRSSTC
Procedure: The effects of compounds BL-230 and BL-236 on PDE6 human enzyme activity were quantified by measuring the production of 5′GMP from cGMP, using an enzyme isolated from Cerep bovine retina of and the detection method used was scintillation proximity assay (SPA).
The test compound, the reference compound or water (control) were added to a buffer containing 40 mM Tris-HCl (pH 7.8), 3 mM MgCl2, 1.4 mM DTT, 0.21% BSA, 200 mM NH4Cl, 2 uM cGMP and 0.05 μCi of [^3H] cGMP. Then the reaction was started by adding the enzyme (final amount depending on the efficiency of the isolation) and the mixture was incubated for 60 minutes at 22° C. For basal control measurements, the enzyme was omitted from the reaction mixture. Following this, the SPA incubation beads were added. After 20 minutes at 22° C. under agitation, the amount of [^3H] 5′GMP was quantified with a scintillation counter (Topcount, Packard). The results were expressed as an inhibition percentage of the control enzyme activity. The standard inhibitory reference compound zaprinast was used, which was tested in each experiment at several concentrations to obtain an inhibition curve from which its IC50 value was calculated. […]

T1 sequence (Q13370 whole entry): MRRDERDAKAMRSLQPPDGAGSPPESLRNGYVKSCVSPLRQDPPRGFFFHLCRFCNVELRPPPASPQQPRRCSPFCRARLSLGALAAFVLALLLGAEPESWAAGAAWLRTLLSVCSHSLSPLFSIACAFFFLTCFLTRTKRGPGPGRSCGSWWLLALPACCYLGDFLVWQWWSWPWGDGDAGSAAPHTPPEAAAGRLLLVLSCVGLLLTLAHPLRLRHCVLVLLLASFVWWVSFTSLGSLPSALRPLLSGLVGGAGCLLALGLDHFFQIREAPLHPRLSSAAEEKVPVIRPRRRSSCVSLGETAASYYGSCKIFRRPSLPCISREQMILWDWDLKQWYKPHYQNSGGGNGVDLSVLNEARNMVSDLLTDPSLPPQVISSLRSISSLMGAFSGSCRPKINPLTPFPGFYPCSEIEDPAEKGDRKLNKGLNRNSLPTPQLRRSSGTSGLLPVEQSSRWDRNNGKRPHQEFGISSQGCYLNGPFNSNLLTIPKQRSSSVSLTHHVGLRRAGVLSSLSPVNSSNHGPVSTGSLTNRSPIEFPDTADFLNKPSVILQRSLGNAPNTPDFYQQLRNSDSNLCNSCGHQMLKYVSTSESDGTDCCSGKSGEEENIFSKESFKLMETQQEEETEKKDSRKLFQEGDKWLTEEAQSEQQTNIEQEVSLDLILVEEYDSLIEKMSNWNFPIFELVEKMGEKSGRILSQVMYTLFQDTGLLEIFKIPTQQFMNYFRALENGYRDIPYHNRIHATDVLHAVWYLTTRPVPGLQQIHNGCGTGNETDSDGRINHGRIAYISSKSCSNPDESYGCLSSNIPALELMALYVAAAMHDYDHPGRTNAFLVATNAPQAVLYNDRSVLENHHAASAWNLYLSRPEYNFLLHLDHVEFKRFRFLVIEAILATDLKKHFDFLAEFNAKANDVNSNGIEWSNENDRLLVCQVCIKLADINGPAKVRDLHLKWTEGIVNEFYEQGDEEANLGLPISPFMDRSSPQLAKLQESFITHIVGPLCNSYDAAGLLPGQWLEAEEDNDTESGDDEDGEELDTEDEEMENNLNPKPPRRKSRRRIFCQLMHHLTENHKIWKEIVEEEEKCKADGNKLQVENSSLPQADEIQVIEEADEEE

inhibition of PDE3B enzyme activity (PDE3B)	inhibition of PDE6 enzyme activity (PDE6) [%]	Structure (SMILES)
did not inhibit	85	O=C1C2=C(c3c[nH]c4ccccc34)OC(c3ccc4c(c3)OCO4)N2C(=O)CN1CCO (stereo not shown) [BL-230, 3-(benzo[d][1,3]dioxol-5yl)-7-(2-hydroxyethyl)-1-(1H-indol-3-yl)-6,7-dihydro-3H-oxazolo[3,4-a]pyrazine-5,8-dione]
did not inhibit	90	C[C@@H](CO)N1CC(=O)N2C(=C(c3c[nH]c4ccccc34)OC2c2ccc3c(c2)OCO3)C1=O (stereo partly drawn) [BL-236, 3-(benzo[d][1,3]dioxol-5yl)-7-((S)1-hydroxypropan-2yl)-1-(1H-indol-3-yl)-6,7-dihydro-3H-oxazolo[3,4-a]pyrazine-5,8-dione]
